Source: patent US20150208654A1, “SEED COATING METHODS AND COMPOSITIONS WITH A RYANODINE RECEPTOR BINDING AGENT” (PIONEER HI-BRED INTERNATIONAL, INC., priority 2012, published 2015)

How the values were obtained:
Type in all cases: in vivo
[1] = system: velvetbean caterpillar (VBC) (Anticarsia gemmatalis); assay: Laboratory-field leaf bio-assay (LBF) on leaves of soybean plants grown from treated seeds; conditions: seed treatment 120 ug ai/seed, 2nd instar larvae
Experimental: Soybean seeds were treated with chlorantraniliprole at rates of 120 ug ai/seed. The seeds were sown into soil bed fields with a size of 6 meters in length and 4 rows of 40 cm in width. Leaf samples were collected at the 3rd to the 7th soybean trifoliate growth stage and brought to the laboratory. Laboratory-field leaf bio-assay (LBF) was performed for each soybean growth stage using velvetbean caterpillar (VBC) (Anticarsia gemmatalis) exposing the leaves to 2nd instar larvae stage. Each treatment group was replicated 4 times, and results (Table 2) are expressed as % larval mortality. At 43 days after planting, the VBC larval mortality rate was 88%.

[2] = system: velvetbean caterpillar (VBC) (Anticarsia gemmatalis); assay: Field plot larvae count on soybean grown from treated seeds (area 1); conditions: 100 ug ai/seed, compared to untreated
Experimental: (§1) Soybean seeds were treated with chlorantraniliprole at rate of 100 ug ai/seed. The seeds were sown into soil bed fields (area 1) with a size of 8 meters by 8 meters in size, with an area of 64 m2. Plots were replicated 4 times. Evaluation was based on the total number of velvetbean caterpillar (VBC) (Anticarsia gemmatalis) larvae per meter at 37 to 63 days after planting (DAP), and converted to % larvae count reduction compared to the untreated (Table 3). 50 days after planting, the VBC larvae reduction was still 73%, and after 63 days had activity at 35%.

[3] = system: velvetbean caterpillar (VBC) (Anticarsia gemmatalis); assay: Field plot larvae count on soybean grown from treated seeds (area 2); conditions: 100 ug ai/seed, compared to untreated
Experimental: as §1, with “2)” for “1)”, “untreated.” for “untreated (Table 3). 50 days after planting, the VBC larvae reduction was still 73%, and after 63 days had activity at 35%.”

CNC(=O)c1cc(Cl)cc(C)c1NC(=O)c1cc(Br)nn1-c1ncccc1Cl [Chlorantraniliprole, chlorantraniliprole]
% VBC larval mortality ([1]; 3rd trifoliate, 25 DAP): 100%
% VBC larval mortality ([1]; 4th trifoliate, 29 DAP): 94%
% VBC larval mortality ([1]; 5th trifoliate, 36 DAP): 91%
% VBC larval mortality ([1]; 7th trifoliate, 43 DAP): 88%
% VBC larvae reduction ([2]; 37 DAP): 20%
% VBC larvae reduction ([2]; 50 DAP): 73%
% VBC larvae reduction ([2]; 63 DAP): 35%
% VBC larvae reduction ([3]; 37 DAP): 25%
% VBC larvae reduction ([3]; 50 DAP): 20%
% VBC larvae reduction ([3]; 63 DAP): 43%
